Some test systems named below: RXF 393; NCI-H226; ACHN; MOLT-4; HCT-116; OVCAR-3; SNB-19; HT-29; LOX IMVI; SK-MEL-5; HCC 2998; IGROV-1; OVCAR-4; NCI/ADR-RES; MDA-N; SK-MEL-2; CCRF-CEM; UO-31; M14; A498.
Common to all, as to assay: NCI-60 cell line screen, 48 h

SMILES strings stand for the structures.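 Each compound was tested at five concentrations against cells in 96-well plates for 48 hours. At the GI50, growth is halved.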 Active and inactive are the calls of the source. No stated cut-off is given here; in the data, active = GI50 up to about 1.1 µM and inactive = higher. Bounds are passed on as bounds.

Consider `O=C1C2CCN(CC2)C1CN1CCOCC1` (stereo not given), for which the GI50 with RXF 393 is 2.25 µM (inactive); in the assay with NCI-H226, 13.6 µM (inactive); with ACHN, 2.01 µM (inactive); in the assay on MOLT-4 it was 2.33 µM (inactive); with HCT-116, 1.87 µM (inactive); with OVCAR-3, 2.14 µM (inactive). In addition, the GI50 is 18.7 µM (inactive) in the assay on SNB-19; 7.73 µM (inactive) in the assay with HT-29; 5.16 µM (inactive) in the assay on LOX IMVI; 17.1 µM (inactive) in the assay with SK-MEL-5; 15.7 µM (inactive) with HCC 2998; 19.3 µM (inactive) with IGROV-1. In addition, the GI50 in the assay with OVCAR-4 is 4.04 µM (inactive); in the assay with NCI/ADR-RES, 1.96 µM (inactive); in the assay with MDA-N, 5.75 µM (inactive); in the assay on SK-MEL-2, 17.5 µM (inactive); with CCRF-CEM, 6.98 µM (inactive); with UO-31, 3.84 µM (inactive). The GI50 was 2.96 µM (inactive) in the assay on M14 and 16.8 µM (inactive) with A498.
For `CC1(C)CCC(C)(C)c2cc(NC(=O)c3ccc(C(=O)O)cc3)ccc21` [TAMIBAROTENE], the GI50 in the assay with RXF 393 is 26.9 µM (inactive); in the assay with NCI-H226, 22.2 µM (inactive); in the assay on ACHN it was 36.5 µM (inactive); with MOLT-4 it was 30.7 µM (inactive); with HCT-116 it was 18.7 µM (inactive); with OVCAR-3, 22.4 µM (inactive). Besides, the GI50 is 32.8 µM (inactive) with SNB-19; 25.8 µM (inactive) in the assay on HT-29; 22.9 µM (inactive) with LOX IMVI; 29.5 µM (inactive) with SK-MEL-5; 27.2 µM (inactive) with HCC 2998; 34.8 µM (inactive) in the assay with IGROV-1. For the same compound, the GI50 in the assay on OVCAR-4 is 31.1 µM (inactive); in the assay on NCI/ADR-RES, 31.9 µM (inactive); with MDA-N, 25.6 µM (inactive); in the assay with SK-MEL-2 it was 25.6 µM (inactive); with CCRF-CEM it was 16.8 µM (inactive); with UO-31, 17.2 µM (inactive). In addition, the results for the GI50 with M14 and in the assay with A498 were 26.5 µM (inactive) and 23.7 µM (inactive), respectively.
Regarding `COC(=O)c1ccccc1NCc1cc(O)ccc1O`, the GI50 with RXF 393 is 15.9 µM (inactive); with NCI-H226, 18 µM (inactive); with ACHN, 16.2 µM (inactive); in the assay on MOLT-4 it was 16.1 µM (inactive); in the assay with HCT-116, 19.5 µM (inactive); in the assay with OVCAR-3, 16.7 µM (inactive). The GI50 in the assay on SNB-19 was 39 µM (inactive); with HT-29, 21.8 µM (inactive); in the assay on LOX IMVI, 17.1 µM (inactive); in the assay on SK-MEL-5, 19 µM (inactive); in the assay on HCC 2998 it was 23.4 µM (inactive); in the assay with IGROV-1, 25.9 µM (inactive). Also, the GI50 was 17.9 µM (inactive) in the assay with OVCAR-4; 19.2 µM (inactive) in the assay on NCI/ADR-RES; 16.4 µM (inactive) in the assay on MDA-N; 22.3 µM (inactive) in the assay on SK-MEL-2; 4.91 µM (inactive) with CCRF-CEM; 17.5 µM (inactive) in the assay on UO-31. Moreover, the GI50 in the assay on M14 is 12.5 µM (inactive); in the assay on A498, 34.3 µM (inactive).
As for `COc1ccc2c(c1)[nH]c1c(/C=C/c3ccccc3)nccc12`, the GI50 in the assay on RXF 393 was 14.8 µM (inactive); with NCI-H226 it was 17.4 µM (inactive); in the assay with ACHN it was 12.2 µM (inactive); in the assay on MOLT-4, 7.55 µM (inactive); in the assay with HCT-116 it was 12.1 µM (inactive); with OVCAR-3 it was 13.6 µM (inactive). In addition, the GI50 in the assay with SNB-19 is 16 µM (inactive); with HT-29, 10 µM (inactive); with LOX IMVI, 18.7 µM (inactive); with SK-MEL-5 it was 14.8 µM (inactive); in the assay on HCC 2998, 13 µM (inactive); with IGROV-1, 14.7 µM (inactive). The GI50 with OVCAR-4 was 19.6 µM (inactive); in the assay with NCI/ADR-RES it was 11 µM (inactive); with MDA-N it was 16.2 µM (inactive); in the assay on SK-MEL-2, 16.2 µM (inactive); in the assay with CCRF-CEM, 17 µM (inactive); in the assay on UO-31, 10.4 µM (inactive). The GI50 in the assay with M14 is 15.9 µM (inactive); in the assay with A498, 12.3 µM (inactive).
For `C=CCC1(O)CC(n2cc(C)c(=O)[nH]c2=O)OC1CO[Si](C)(C)C(C)(C)C` (stereo not given), the GI50 in the assay with RXF 393 is 29 µM (inactive); in the assay with NCI-H226, 49.5 µM (inactive); in the assay with ACHN, 45.6 µM (inactive); in the assay with MOLT-4 it was 57.3 µM (inactive); in the assay on HCT-116 it was 42 µM (inactive); in the assay with OVCAR-3 it was 39 µM (inactive). Besides, the GI50 with SNB-19 is > 100 µM (inactive); with HT-29 it was 40.9 µM (inactive); with LOX IMVI, 31.2 µM (inactive); with SK-MEL-5, 34.4 µM (inactive); in the assay with HCC 2998, 24.5 µM (inactive); in the assay on IGROV-1 it was 46.9 µM (inactive). Besides, the GI50 in the assay with OVCAR-4 was 47 µM (inactive); with NCI/ADR-RES, 43.1 µM (inactive); in the assay with MDA-N, 51.6 µM (inactive); in the assay on SK-MEL-2 it was 22.3 µM (inactive); in the assay on CCRF-CEM, 43.8 µM (inactive); in the assay with UO-31, 42.4 µM (inactive). The GI50 with M14 was 46.7 µM (inactive); with A498 it was 37.2 µM (inactive).
For the compound `Cn1c(=O)c2c(nc3n(CCCCl)c(=O)ccn23)n(C)c1=O`, the GI50 in the assay on RXF 393, with NCI-H226, in the assay with ACHN, in the assay on MOLT-4, in the assay on HCT-116 and with OVCAR-3 was > 100 µM (inactive) each time. For the same compound, the GI50 in the assay on SNB-19, with HT-29, in the assay with LOX IMVI, in the assay with SK-MEL-5, with HCC 2998 and in the assay with IGROV-1 was > 100 µM (inactive) in each case. Further, the GI50 in the assay with OVCAR-4, with NCI/ADR-RES, in the assay on MDA-N, with SK-MEL-2, in the assay on CCRF-CEM and in the assay on UO-31 was > 100 µM (inactive) throughout. For the same compound, the GI50 in the assay with M14 and with A498 was > 100 µM (inactive) in each case.
For the compound `COc1ccc(OC)c2c(/C=C/c3ccc(N(C)C)cc3)ccnc12`, the GI50 with RXF 393 is > 10 µM (inactive); in the assay with NCI-H226, > 10 µM (inactive); in the assay with ACHN, 4.68 µM (inactive); in the assay on MOLT-4, 6.68 µM (inactive); in the assay with HCT-116 it was 3.53 µM (inactive); in the assay with OVCAR-3 it was > 10 µM (inactive). Also, the GI50 is > 10 µM (inactive) in the assay on SNB-19; 4.11 µM (inactive) with HT-29; 2.94 µM (inactive) in the assay on LOX IMVI; > 10 µM (inactive) in the assay with SK-MEL-5; > 10 µM (inactive) in the assay with HCC 2998; > 10 µM (inactive) in the assay with IGROV-1. Further, the GI50 in the assay on OVCAR-4 was 4.32 µM (inactive); in the assay on NCI/ADR-RES, > 10 µM (inactive); in the assay on MDA-N, 5.24 µM (inactive); in the assay on SK-MEL-2, > 10 µM (inactive); in the assay on CCRF-CEM, 2.48 µM (inactive); with UO-31, 4.67 µM (inactive). In addition, the GI50 in the assay with M14 is 7.36 µM (inactive); with A498 it was > 10 µM (inactive).
For `COc1c(C)c(C/C=C(\C)CCCCO[Si](c2ccccc2)(c2ccccc2)C(C)(C)C)c(OC)c(OC)c1OC`, the GI50 with RXF 393 is > 100 µM (inactive); in the assay with NCI-H226, > 100 µM (inactive); in the assay on ACHN it was 16.2 µM (inactive); in the assay on MOLT-4, > 46.5 µM (inactive); in the assay on HCT-116 it was 35.5 µM (inactive); in the assay with OVCAR-3, > 46.5 µM (inactive). Further, the GI50 was > 46.5 µM (inactive) in the assay with SNB-19; > 46.5 µM (inactive) in the assay on HT-29; 15.5 µM (inactive) in the assay with LOX IMVI; 30.1 µM (inactive) in the assay with SK-MEL-5; 41.8 µM (inactive) with HCC 2998; 24.9 µM (inactive) in the assay with IGROV-1. Also, the GI50 was 28.1 µM (inactive) in the assay on OVCAR-4; 27 µM (inactive) in the assay with NCI/ADR-RES; > 46.5 µM (inactive) in the assay on MDA-N; > 100 µM (inactive) in the assay on SK-MEL-2; > 46.5 µM (inactive) in the assay with CCRF-CEM; 9.27 µM (inactive) in the assay on UO-31. Also, the GI50 in the assay with M14 was > 46.5 µM (inactive); in the assay with A498, > 100 µM (inactive).
In the case of `N#CC1=C(N)N(/N=C/c2ccccc2)C(c2ccccc2)C1(C#N)C#N` (stereo not given), the GI50 with RXF 393 was 3.39 µM (inactive); with NCI-H226 it was 18.6 µM (inactive); with ACHN, 4.3 µM (inactive); in the assay on MOLT-4, 2.23 µM (inactive); with HCT-116, 2.81 µM (inactive); in the assay with OVCAR-3, 4.89 µM (inactive). Further, the GI50 in the assay with SNB-19 was 23.1 µM (inactive); in the assay on HT-29, 4 µM (inactive); in the assay on LOX IMVI it was 4.14 µM (inactive); in the assay with SK-MEL-5 it was 14.2 µM (inactive); with HCC 2998 it was 19.6 µM (inactive); in the assay with IGROV-1, 13.7 µM (inactive). The GI50 is 14.9 µM (inactive) with OVCAR-4; 21.6 µM (inactive) with NCI/ADR-RES; 16.1 µM (inactive) in the assay with MDA-N; 17.2 µM (inactive) with SK-MEL-2; 1.9 µM (inactive) in the assay with CCRF-CEM; 15.7 µM (inactive) in the assay with UO-31. Besides, the GI50 is 12.6 µM (inactive) in the assay on M14 and 15.9 µM (inactive) in the assay with A498.
`CCOC(=O)Nc1cc2c(c(N)n1)N=C(c1ccc(Cl)cc1Cl)CN2`: the GI50 with RXF 393 is < 0.01 µM (active); in the assay with NCI-H226, 0.0314 µM (active); in the assay with ACHN, 0.0535 µM (active); in the assay on MOLT-4 it was < 0.0228 µM (active); with HCT-116, < 0.01 µM (active); with OVCAR-3, 0.0109 µM (active). In addition, the GI50 is 0.019 µM (active) in the assay on SNB-19; < 0.0181 µM (active) with HT-29; < 0.0195 µM (active) in the assay with LOX IMVI; < 0.0124 µM (active) in the assay on SK-MEL-5; 0.0995 µM (active) with HCC 2998; 0.292 µM (active) in the assay with IGROV-1. For the same compound, the GI50 with OVCAR-4 is 14.3 µM (inactive); in the assay on NCI/ADR-RES, < 0.0154 µM (active); in the assay with MDA-N it was < 0.01 µM (active); in the assay on SK-MEL-2 it was < 0.01 µM (active); with CCRF-CEM, < 0.0155 µM (active); in the assay on UO-31, 0.052 µM (active). In addition, the figures for the GI50 with M14 and in the assay with A498 were 0.0766 µM (active) and 2.68 µM (inactive), respectively.

Source of the values: ChEMBL document CHEMBL1201862, “PubChem BioAssay data set” (2004).
